Data reported in patent US11098083B2, “Peptide that regulates fat metabolism and method for regulating fat metabolism” (SHENZHEN INSTITUTES OF ADVANCED TECHNOLOGY, priority 2017, dated 2021).
Ends that are not written are not given here.

Legend:
GPRC6A = biological target: T1, GPRC6A (Homo sapiens, UniProt Q5T6X5); test: internalization of GPRC6A with Cy5-labelled peptides in hGPRC6A-overexpressed Hela cells; format: cell-based; conditions: 100 nM, 37° C., 30 minutes, confocal microscope, FIG. 6C
T1 construct: expressed in transfected cells; host or cells: Hela cells (transfected with Lipofectamine 2000)
T1 sequence (Q5T6X5 19-926): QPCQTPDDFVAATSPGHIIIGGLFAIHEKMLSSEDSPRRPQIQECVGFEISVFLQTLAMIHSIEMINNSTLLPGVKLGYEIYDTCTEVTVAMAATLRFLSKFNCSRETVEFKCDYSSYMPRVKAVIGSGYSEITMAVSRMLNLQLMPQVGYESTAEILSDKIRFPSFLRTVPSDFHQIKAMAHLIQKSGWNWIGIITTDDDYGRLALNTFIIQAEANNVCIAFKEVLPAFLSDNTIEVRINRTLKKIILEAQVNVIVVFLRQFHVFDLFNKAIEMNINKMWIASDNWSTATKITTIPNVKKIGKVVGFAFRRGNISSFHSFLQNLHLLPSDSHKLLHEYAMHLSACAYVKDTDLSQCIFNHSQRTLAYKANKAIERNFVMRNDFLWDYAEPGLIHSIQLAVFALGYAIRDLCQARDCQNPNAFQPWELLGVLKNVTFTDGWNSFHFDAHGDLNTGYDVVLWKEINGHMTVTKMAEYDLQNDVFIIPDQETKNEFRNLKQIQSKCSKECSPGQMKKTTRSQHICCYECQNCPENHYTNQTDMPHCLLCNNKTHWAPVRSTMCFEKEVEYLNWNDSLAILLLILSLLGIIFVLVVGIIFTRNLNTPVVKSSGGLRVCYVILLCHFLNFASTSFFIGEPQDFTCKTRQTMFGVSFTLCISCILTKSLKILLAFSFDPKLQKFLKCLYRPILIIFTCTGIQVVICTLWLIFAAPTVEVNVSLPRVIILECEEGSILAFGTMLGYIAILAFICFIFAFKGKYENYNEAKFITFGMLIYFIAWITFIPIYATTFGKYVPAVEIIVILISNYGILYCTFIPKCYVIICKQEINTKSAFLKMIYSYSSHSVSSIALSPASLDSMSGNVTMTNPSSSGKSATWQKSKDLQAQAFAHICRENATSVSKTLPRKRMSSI
Experimental: S230: Cy5-labelled OCN, Cy5-labelled hOCN22, and Cy5-labelled ISAP^2 may promote internalization of GPRC6A in the GPRC6A-overexpressed Hela cells.
The hGPRC6A-expressed Hela cell suspension may be plated at a density of 1.6×10^5/ml into a 24-well tray, and each well of the tray may be pre-placed with a gelatin-coated coverslip. 0.5 mL of media containing the cells may be added into each well, and the cells may be incubating at 37° C. and 5% CO2 for 24 hours. The cells may be starved for 4 h in serum-free media before any treatment, and then 100 nM of Cy5-OCN, 100 nM of Cy5-hOCN22, and 100 nM of Cy5-ISAP2 may be added to each well respectively to incubate with the cells at 37° C. for 30 minutes. The cells may be fixed by polyoxymethylene for 30 minutes. Afterwards, Triton X may be added to incubate with the cells for 10 minutes. The cells may be stained with 4′,6-diamidino-2-phenylindole (DAPI, Sigma) for 10 seconds as per manufacturer's instructions, and observed and photographed by a fluorescence confocal microscope.

wild-type C57BL/6 mice = test: gavage of ISAP4, ISAP5, ISAP6: intestinal absorption of fat (olive oil) in normal mice; format: in vivo; conditions: gavage 2 pmol/g daily one week, day 8 olive oil 200 μl, compared with saline control group, FIG. 9
Source text: S410: effects of acute gavage of ISAP4, ISAP5, and ISAP6 on intestinal absorption of fat in normal mice may be studied.
15 male wild-type C57BL/6 mice of 6 weeks old may be divided into 5 groups, 3 in each group. There may be 3 experimental groups, and the mice in the 3 experimental groups may be administered with ISAP4, ISAP5, and ISAP6 at 2 pmol/g of body weight respectively. The mice in two control groups may be gavaged with an equal volume of normal saline daily for one week. On the 8th day of the experiment, 30 minutes after gavage of ISAP4, ISAP5, ISAP6 and normal saline respectively, the mice in the three experimental groups may be gavaged with 200 μl of sterilized olive oil, the mice in one of the control groups may also be intragstrically administered with 200 μl of sterilized olive oil to be a saline control group, and the mice in the other one of the control groups may further be gavaged with 200 μl of normal saline to be a negative control group. After 50 minutes, each mouse may be euthanized using 95% CO2 and dissected to obtain small intestines. The jejunum near the duodenum may be frozen and sliced, stained with oil red O, and counterstained with hematoxylin. An oil red O-positive area may be quantified by the ImageJ software under double-blind conditions and a ratio of the oil red O-positive area to a total area of the intestinal villi may be calculated. Statistical analysis may be performed to compare with the mince in the saline+olive oil group. ***: p<0.001. N=3.
The oil red O-positive area may be quantified by the ImageJ software under double-blind conditions and the ratio of the oil red O-positive area to the total area of the intestinal villi may be calculated. […] Meanwhile, referring to the sequence comparison shown in FIG. 8, it can be seen that SEQ ID NO. 12: PVPYPDPLEP, SEQ ID NO. 15: SVPSPDPLEP, SEQ ID NO. 13: PYPDPLEP and SEQ ID NO. 16: PSPDPLEP are highly similar in sequence, and these sequences may be very conservative in various species. […]

HFD mice [1] = test: gavage of peptides in HFD mice: triglyceride in feces, week 7; format: in vivo, C57BL/6 mice; conditions: gavage 2 pmol/g, feces of week 7, compared with HFD control group, FIG. 7B
Experimental: Feces of each mouse may be collected in week 7, baked at 60° C. for 3 days to ensure complete dryness. Then, 1 mg of the feces may be collected and soaked in 1 ml of a mixed solution consisting of chloroform and methanol in a ratio of 2:1. The soaked feces may then be disrupted with a tissue homogenizer and centrifuged to obtain a supernatant. The supernatant may be detected for triglyceride by the Roche blood biochemical analyzer. Experimental results are shown in FIG. 7B. **: P<0.01, ***: P<0.001.
(§1) Feces of the mice may be collected in the 7th week of the experiment and baked at 60° C. for 3 days to ensure complete dryness. Then, 1 mg of the feces may be weighed and soaked in 1 ml of a mixed solution containing chloroform and methanol in a ratio of 2:1. The feces with the mixed solution may be disrupted by a tissue homogenizer and centrifuged to obtain a supernatant. The supernatant may be detected for triglyceride by the Roche blood biochemical analyzer.
as §1, with “2:1.The” for “2:1. The”
as §1, with “each mouse” for “the mice”, “experiment,” for “experiment”, “dryness.” for “dryness. Then,”, “in” for “with”

human GPRC6A (hGPRC6A) = biological target: T2, human GPRC6A (hGPRC6A) (Homo sapiens, UniProt Q5T6X5); test: fluorescent binding of OCN peptides to cell membranes of Hela cells with hGPRC6A overexpressed; conditions: cell membranes of Hela cells with hGPRC6A overexpressed, FIG. 6B
T2 construct: expressed in transfected cells; host or cells: Hela cells (transfected with Lipofectamine 2000)
T2 sequence (Q5T6X5 19-926): T1 sequence (Q5T6X5 19-926)
Experimental: S131: overexpression of hGPRC6A in Hela cells may be established.
1) Cell plating: A Hela cell suspension may be plated at a density of 1.6×10^5 cells/mL into a 6-well tray with 2 mL of DMEM per well, incubating at 37° C. and 5% CO2 for 24 hours.
2) A vector carrying hGPRC6A (pReceiver-M61) may be transfected into the Hela cells for overexpression, using Lipofectamine 2000 (Invitrogen) as per manufacturer's instructions, and media containing the vector may be replaced by normal media 4 hours later.
3) After the transfection, the cells may be cultured in the normal media for another 48 hours, and the normal media may be discarded. The cells attached on a bottom of each well may be washed twice with sterile PBS, and 300 μl of TRIzol solution may be added into each well. Cellular RNAs may be extracted as per RNAiso Plus (TaKaRa) instructions, and after a DNase treatment, may be reversely transcribed into cDNAs using DNAEngine and a SuperScript™ (Invitrogen, Canada) kit. The cDNAs may be used as a template, and real-time monitoring and analysis may be performed to fluorescent PCR products at various time points using a SYBR Green (Light Cycler Roche, Germany) method to detect expression levels of the hGPRC6A. […] The selected cell strain may then be detected for its gene expression by qPCR. […]

HFD mice [2] = test: gavage of peptides in HFD mice for 7 weeks: body weight; format: in vivo, C57BL/6 mice; conditions: gavage 2 pmol/g of body weight for 7 weeks, compared with HFD control group, FIG. 7A
Source text: Six-week-old male wild-type C57BL/6 mice may be divided into 6 groups, 6 mice in each group. Group #1 may be provided with ND, and groups #2 to #6 may be provided with HFD. Group #2 may be treated as a HFD control group. Groups #3 to #6 may be experimental groups, and mice ingroups #3 to #6 may be gavaged with OCN, ISAP1, ISAP2, and ISAP3 respectively at 2 pmol/g of body weight for 7 weeks. Body weight of each mouse may be monitored and measured once a week.
Six-week-old male wild-type C57BL/6 mice may be divided into 6 groups, 6 in each group. Group #1 may be provided with ND to be a ND control group, and groups #2 to #6 may be provided with HFD. Group #2 may be treated as a HFD control group. Groups #3 to #6 may be treated as experimental groups and may be gavaged with OCN, ISAP1, ISAP2, and ISAP3 respectively at 2 pmol/g of body weight daily for 7 weeks. Body weight may be monitored and measured once a week.
Six-week-old male wild-type C57BL/6 mice may be divided into 6 groups, 6 in each group. Group #1 may be provided with ND to be a ND control group, groups #2 to #6 may be provided with HFD. Group #2 may be treated as a HFD control group. Groups #3 to #6 may be treated as experimental groups, and may be gavaged with OCN, ISAP1, ISAP2, and ISAP3 respectively at 2 pmol/g of body weight daily for 7 weeks. A body weight of each mouse may be monitored and measured once a week.

Question: With “Cy5-ISAP2: Cy-5-labeled SEQ ID NO.2 (ISAP2) (YLYQWLGAPVPYPDPLEP; also: Cy5 label, position not given here; listed as Homo sapiens)” as the substance, how does the “distribution of Cy5-labelled peptide (internalization)” value (GPRC6A) read?
Answer: The value was “distributed inside the cell”.

Question: Which “distribution of Cy5-labelled peptide (internalization)” value (GPRC6A) does the source give for “Cy5-OCN: Cy-5-labeled OCN (osteocalcin protein) (YLYQWLGAPVPYPDPLEPRREVCELNPDCDELADHIGFQEAYRRFYGPV; ends and bridges not checked; also: Cy5 label, position not given here; UniProt P02818 52-100, looked up) [reference compound]” here?
Answer: Its value is “distributed inside the cell”.

Question: Which “absorption of olive oil in the mice (oil red O-positive area / total area of intestinal villi)” value (wild-type C57BL/6 mice) does the source give for PDPLEP [ISAP6] here?
Answer: Its value is “effectively reduce the absorption of olive oil”.

Question: Which “absorption of olive oil in the mice (oil red O-positive area / total area of intestinal villi)” value (wild-type C57BL/6 mice) does the source give for PSPDPLEP [ISAP5] here?
Answer: Its value is “effectively reduce the absorption of olive oil”.

Question: SVPSPDPLEP [ISAP4] was tested. Which “absorption of olive oil in the mice (oil red O-positive area / total area of intestinal villi)” value (wild-type C57BL/6 mice) did it give?
Answer: Its value is “effectively reduce the absorption of olive oil”.

Question: With YLYQWLGASVPSPDPLEP [ISAP2] as the substance, how does the “content (level) of triglyceride in the feces” value (HFD mice [1]) read?
Answer: Its value is “significantly increased”.

Question: What about the “ability of binding with cell membranes, compared with hOCN” value (human GPRC6A (hGPRC6A)) of the same substance?
Answer: Its value is “consistent with that of hOCN”.

Question: And the body weight (HFD mice [2])?
Answer: Its body weight is “significant weight loss”.

Question: What does the source list for YLYQWLGASVPSPDPLEPR [ISAP3]?
Answer: content (level) of triglyceride in the feces (HFD mice [1]): significantly increased; body weight (HFD mice [2]): significant weight loss
